Measurements: patent publication US8673856B2 (Anygen Co., Ltd., priority 2006, dated 2014)

System: Sprague-Dawley male rats
Details: rat, in vivo

CC[C@H](C)[C@@H]1NC(=O)[C@H](CCCNC(=N)N)NC(=O)[C@H](CO)NC(=O)[C@@H]2CSSC[C@@H]3NC(=O)[C@H](CO)NC(=O)CNC(=O)[C@H]([C@@H](C)O)NC(=O)[C@H](CSSC[C@H](N)C(=O)N[C@@H](CCCCN)C(=O)NCC(=O)N[C@@H]([C@@H](C)O)C(=O)NCC(=O)N[C@@H](CCCCN)C(=O)N[C@@H](CO)C(=O)N2)NC(=O)[C@H](CSSC[C@@H](C(N)=O)NC(=O)[C@H](CCCCN)NC(=O)CNC(=O)[C@H](CO)NC(=O)[C@H](CCCNC(=N)N)NC3=O)NC(=O)[C@H](CC(N)=O)NC(=O)[C@H](Cc2ccc(O)cc2)NC(=O)[C@H](C)NC1=O [FVIA, CKGTGKSCSRIAYNCCTGSCRSGKC-NH2]
50% withdrawal threshold, mechanical stimulus: increase in 50% withdrawal threshold

CSCC[C@@H]1NC(=O)[C@H](CC(C)C)NC(=O)[C@H](CCCNC(=N)N)NC(=O)[C@H](CO)NC(=O)[C@@H]2CSSC[C@@H]3NC(=O)[C@H](CO)NC(=O)CNC(=O)[C@H]([C@@H](C)O)NC(=O)[C@H](CSSC[C@H](N)C(=O)N[C@@H](CCCCN)C(=O)NCC(=O)N[C@@H](CCCCN)C(=O)NCC(=O)N[C@@H](C)C(=O)N[C@@H](CCCCN)C(=O)N2)NC(=O)[C@H](CSSC[C@@H](C(N)=O)NC(=O)[C@H](CCCCN)NC(=O)CNC(=O)[C@H](CO)NC(=O)[C@H](CCCNC(=N)N)NC3=O)NC(=O)[C@H](CC(=O)O)NC(=O)[C@H](Cc2ccc(O)cc2)NC1=O [MVIIA, CKGKGAKCSRLMYDCCTGSCRSGKC-NH2]
50% withdrawal threshold, mechanical stimulus: increase in 50% withdrawal threshold
